{"source": "patent US11413285B2", "about": "“PDE III inhibitors for treatment of asymptomatic heart failure” (priority 2004, dated 2022)", "key": {"[1]": {"test_system": "dogs with DCM", "settings": "dogs with DCM in the LIVE study; cited from earlier work"}, "[2]": {"test_system": "dogs suffering of occult dilated cardiomyopathy", "assay": "Study in dogs with occult dilated cardiomyopathy (ISACHC class I)", "format": "in vivo, dog", "text": "A study is done with pimobendan ([…]®) in dogs suffering of occult dilated cardiomyopathy. Inclusion criteria were dogs which are diagnosed to have a congestive heart failure of class I according to the […]-score due to dilated cardiomyopathy (DCM). Dogs having a having an asymptomatic (occult) heart failure, e.g. asymptomatic DCM must have reduced contractility of the heart or other signs of reduced cardiac efficacy such as volume overload or ventricle dilatation as confirmed by echocardiography. The dogs stay under mono-therapy until signs of congestive heart failure are developing, deteriorate to heart insufficiency score ([…]) class II or III a or b. After confirmation of the congestion by X-ray-radiography the dogs receive furosemid treatment or if the clinical or echocardiographic results makes the addition of another heart failure treatment necessary (primary endpoint). The dogs will be investigated at day 0 prior to first treatment and then approximately 3 month post initiation of the therapy. […] An Echo is performed prior to initiation of therapy (Day 0) and at the following visits to support the clinical diagnosis and to evaluate the effect of the drugs on the contractility of the heart. The echocardiography is performed according to the cardiologic case report form for Irish Wolfhounds. The primary parameter investigated will be the heart insufficiency score ([…]). […]"}, "[3]": {"test_system": "Cocker spaniels and Dobermanns with DCM", "settings": "for mean survival time / survival time, range: in addition to digoxin, enalapril, furosemide", "text": "A double-blind study has been carried out in order to evaluate the long-term efficacy and tolerance to pimobendan and its effect on long-term survival in cocker spaniels and Dobermanns with DCM.\nMaterials and Methods: Cocker spaniels (n=10) and Dobermanns (n=10) presenting to the Cardiopulmonary Service of the R(D)SVS with DCM were recruited for the study with owners' consent. After stabilization on conventional therapy with digoxin, enalapril, and furosemide, dogs received in addition either pimobendan (Vetmedin®) or placebo using a double-blind study design."}, "[4]": {"test_system": "dogs with clinically overt heart failure due to valve insufficiency", "assay": "Double-blind randomized positive controlled multi-centre field trial, pimobendan versus benazepril", "format": "in vivo, dog", "settings": "for dogs that died or were euthanised due to cardiac reasons: 56-days study period, 41 dogs pimobendan group, 35 dogs benazepril group; for ISACHC classification Ib (Score=2), no clinical symptoms, share of cases / overall efficacy rated as very good or good, share of cases: Day 56; for ISACHC heart failure classification improved, share of cases: after the 56 day treatment period; for median survival time: long-term survival data", "procedure": "A double-blind randomized positive controlled multi-centre field trial has been carried out in order to evaluate the clinical efficacy of pimobendan treatment at a daily dose of 0.4-0.6 mg/kg in comparison to an angiotensin-converting-enzyme (ACE) inhibitor treatment with benazepril hydrochloride at a daily dose of approximately 0.25-0.5 mg/kg body weight. Both treatments could be combined with furosemide (up to 8 mg/kg per day) or anti-arrhythmic drugs as appropriate. The study was conducted at 11 centers in Europe by experienced veterinary cardiologists under the rules of Good Clinical Practice (GCP). Mandatory minimum duration of treatment was 56 days for each patient. Dogs were examined on Day 0 prior to first treatment and on Day 7 and 56 after initiation of therapy. In order to obtain long-term survival data, the investigator had the option to continue therapy after Day 56. In the optional study period treatment code for the animal was decoded, as it was not allowed to add pimobendan to the benazepril group, in order to maintain an appropriate […] control group. All other licensed concomitant therapies were allowed. For survival analysis, animals that dropped out or changed treatment due to therapy failure were also rated as dead. However, these cases were statistically evaluated as censored data.\nPrimary parameter for conclusion on efficacy was the clinical severity of heart failure symptoms, classified according to the recommendations of the International Small Animal Cardiac Health Council (ISACHC). Secondary parameters were exercise tolerance, demeanor, findings of the respiratory and circulatory system, overall efficacy rating, as well as, echocardiography data.\nOverall 76 dogs, 41 dogs in the pimobendan group and 35 dogs in the benazepril group were included. […] Mean duration of symptoms prior to inclusion was 4.05 months in the pimobendan and 2.77 months in the benazepril group. There were no clinically relevant differences between the groups prior to initiation of therapy in any of the parameters investigated.\nThe radiographs have been made in a left to right lateral view. For the determination of cardiac size a vertebral scale system was used.\nIn the lateral radiographs, the long axis of the heart (L) was measured with a caliper extending from the ventral aspect of the left main stem bronchus (tracheal bifurcation hilus, carina) to the most distant contour of the left ventricular apex. The caliper was repositioned along the vertebral column beginning at the cranial edge of the 4th thoracic vertebra. The length of the heart was recorded as the number of vertebrae caudal of that point and estimated to the nearest 0.1 of a vertebra. The maximum perpendicular short axis (S) was measured in the same manner beginning at the 4th thoracic vertebra.\nThe length in vertebrae (v) of the long and short axes were then added to obtain a vertebral heart sum (VHS) which provided a single number representing heart size proportionate to the size of the dog. The normal range of VHS in healthy dogs is 8.5 v to 10.5 v (mean of 9.7 v)."}, "[5]": {"test_system": "human patients with heart failure", "settings": "long-term oral use; cited from earlier work"}, "[6]": {"settings": "Visit 1 (Day 0, prior to first treatment)"}}, "note": "Where a name gives a salt, the structure may show the parent alone. Read-outs that look alike come from different tables or passages of the source."}
{"smiles": "CCOC(=O)[C@H](CCc1ccccc1)N[C@@H](C)C(=O)N1CCC[C@H]1C(=O)O", "note": "[enalapril]", "values": [{"measurement": "time to treatment failure", "setting": "[1]", "result": 142.8, "unit": "days"}]}
{"smiles": "COc1ccc(-c2nc3ccc(C4=NNC(=O)CC4C)cc3[nH]2)cc1", "note": "(stereo not drawn) [pimobendan, 4,5-dihydro-6-[2-(4-methoxyphenyl)-1H-benzimidazol-5-yl]-5-methyl-3(2H)-p-yridazone]", "values": [{"measurement": "Left Ventricular Reverse Remodeling (LVRR), share of treated dogs", "setting": "[2]; dogs with asymptomatic DCM", "result": "~80", "unit": "%"}, {"measurement": "dogs that went into the state of clinical symptoms (Class II)", "setting": "[2]; interim analysis after 4 years, mono-therapy", "result": "significantly less dogs"}, {"measurement": "mean survival time", "setting": "[3]; Dobermanns with DCM", "result": 280, "unit": "days"}, {"measurement": "survival time, range", "setting": "[3]; Dobermanns with DCM", "result": "42 to 369", "unit": "days"}, {"measurement": "NYHA-class status of the patient", "setting": "[3]; both breeds, addition to standard treatment regimen", "result": "significant improvement"}, {"measurement": "mean survival time", "setting": "[3]; cocker spaniels with DCM", "result": 612, "unit": "days"}, {"measurement": "survival time, range", "setting": "[3]; cocker spaniels with DCM", "result": "61 to 1428", "unit": "days"}, {"measurement": "tolerance / treatment-related adverse effects", "setting": "[3]; dog, in vivo", "result": "well tolerated and no treatment-related adverse effects were noted"}, {"measurement": "dogs that died or were euthanised due to cardiac reasons", "setting": "[4]", "result": 2, "unit": "dogs"}, {"measurement": "ISACHC classification Ib (Score=2), no clinical symptoms, share of cases", "setting": "[4]", "result": 76, "unit": "%"}, {"measurement": "overall efficacy rated as very good or good, share of cases", "setting": "[4]", "result": 85, "unit": "%"}, {"measurement": "vertebral heart sum, Max.", "setting": "[4]; [6]", "result": 14.5, "unit": "v"}, {"measurement": "vertebral heart sum, Mean", "setting": "[4]; [6]", "result": 11.83, "unit": "v"}, {"measurement": "vertebral heart sum, Median", "setting": "[4]; [6]", "result": 11.60, "unit": "v"}, {"measurement": "vertebral heart sum, Min.", "setting": "[4]; [6]", "result": 9, "unit": "v"}, {"measurement": "vertebral heart sum, Max.", "setting": "[4]; Visit 3 (Day 56)", "result": 14.1, "unit": "v"}, {"measurement": "vertebral heart sum, Mean", "setting": "[4]; Visit 3 (Day 56)", "result": 11.71, "unit": "v"}, {"measurement": "vertebral heart sum, Median", "setting": "[4]; Visit 3 (Day 56)", "result": 11.60, "unit": "v"}, {"measurement": "vertebral heart sum, Min.", "setting": "[4]; Visit 3 (Day 56)", "result": 9.0, "unit": "v"}, {"measurement": "change in mean heart size (vertebral heart sum), Mean", "setting": "[4]; Visit 3-1 (Day 56 minus Day 0)", "result": "−0.15", "unit": "v"}, {"measurement": "vertebral heart sum, change from baseline, Max.", "setting": "[4]; Visit 3-1 (Day 56 minus Day 0)", "result": 0.8, "unit": "v"}, {"measurement": "vertebral heart sum, change from baseline, Median", "setting": "[4]; Visit 3-1 (Day 56 minus Day 0)", "result": 0.00, "unit": "v"}, {"measurement": "vertebral heart sum, change from baseline, Min.", "setting": "[4]; Visit 3-1 (Day 56 minus Day 0)", "result": "−1.9", "unit": "v"}, {"measurement": "ISACHC heart failure classification improved, share of cases", "setting": "[4]", "result": 84, "unit": "%"}, {"measurement": "median survival time", "setting": "[4]", "result": 430, "unit": "days"}, {"measurement": "effects on survival", "setting": "[5]", "result": "without significantly adverse effects on survival"}, {"measurement": "exercise tolerance and quality of life", "setting": "[5]", "result": "improvement in exercise tolerance and quality of life"}]}
{"smiles": "CCOC(=O)[C@H](CCc1ccccc1)N[C@H]1CCc2ccccc2N(CC(=O)O)C1=O", "note": "[benazepril, benazepril hydrochloride]", "values": [{"measurement": "dogs that died or were euthanised due to cardiac reasons", "setting": "[4]", "result": 7, "unit": "dogs"}, {"measurement": "ISACHC classification Ib (Score=2), no clinical symptoms, share of cases", "setting": "[4]", "result": 48, "unit": "%"}, {"measurement": "overall efficacy rated as very good or good, share of cases", "setting": "[4]", "result": 41, "unit": "%"}, {"measurement": "ISACHC heart failure classification improved, share of cases", "setting": "[4]", "result": 56, "unit": "%"}, {"measurement": "median survival time", "setting": "[4]", "result": 228, "unit": "days"}]}
